# From US12559454B2, “Benzenesulfonamide derivatives and uses thereof” (2692372 Ontario, Inc., priority 2019, dated 2026)
# Legend:
# BTK [1] = target: T1, BTK (Homo sapiens, UniProt Q06187); assay: BTK washout experiment; type: biochemical; conditions: 400-fold dilution
# Protocol: After a 3-h incubation of 40 nM BTK in the presence of 296 nM of compound I-A1, a 400-fold dilution was performed to remove excess inhibitor.
# After a 6-h incubation of 50 nM BTK in the presence of 280 nM of compound 3A-6, a 400-fold dilution was performed to remove excess inhibitor.
# By way of contrast, a “washout” experiment performed with ARQ-531 gives a very different result, because this compound lacks a warhead and is known to inhibit BTK reversibly. After a 6-h incubation of 50 nM BTK in the presence of 177 nM of ARQ-531, a 400-fold dilution was performed to remove excess inhibitor. […] This indicates to one of ordinary skill in the art that the enzyme was not inhibited irreversibly during the incubation with ARQ-531.
# JAK3 = target: T2, JAK3 (Homo sapiens, UniProt P52333); assay: In vitro JAK3 inhibition (no preincubation); type: biochemical
# T2 sequence (P52333 1-1124): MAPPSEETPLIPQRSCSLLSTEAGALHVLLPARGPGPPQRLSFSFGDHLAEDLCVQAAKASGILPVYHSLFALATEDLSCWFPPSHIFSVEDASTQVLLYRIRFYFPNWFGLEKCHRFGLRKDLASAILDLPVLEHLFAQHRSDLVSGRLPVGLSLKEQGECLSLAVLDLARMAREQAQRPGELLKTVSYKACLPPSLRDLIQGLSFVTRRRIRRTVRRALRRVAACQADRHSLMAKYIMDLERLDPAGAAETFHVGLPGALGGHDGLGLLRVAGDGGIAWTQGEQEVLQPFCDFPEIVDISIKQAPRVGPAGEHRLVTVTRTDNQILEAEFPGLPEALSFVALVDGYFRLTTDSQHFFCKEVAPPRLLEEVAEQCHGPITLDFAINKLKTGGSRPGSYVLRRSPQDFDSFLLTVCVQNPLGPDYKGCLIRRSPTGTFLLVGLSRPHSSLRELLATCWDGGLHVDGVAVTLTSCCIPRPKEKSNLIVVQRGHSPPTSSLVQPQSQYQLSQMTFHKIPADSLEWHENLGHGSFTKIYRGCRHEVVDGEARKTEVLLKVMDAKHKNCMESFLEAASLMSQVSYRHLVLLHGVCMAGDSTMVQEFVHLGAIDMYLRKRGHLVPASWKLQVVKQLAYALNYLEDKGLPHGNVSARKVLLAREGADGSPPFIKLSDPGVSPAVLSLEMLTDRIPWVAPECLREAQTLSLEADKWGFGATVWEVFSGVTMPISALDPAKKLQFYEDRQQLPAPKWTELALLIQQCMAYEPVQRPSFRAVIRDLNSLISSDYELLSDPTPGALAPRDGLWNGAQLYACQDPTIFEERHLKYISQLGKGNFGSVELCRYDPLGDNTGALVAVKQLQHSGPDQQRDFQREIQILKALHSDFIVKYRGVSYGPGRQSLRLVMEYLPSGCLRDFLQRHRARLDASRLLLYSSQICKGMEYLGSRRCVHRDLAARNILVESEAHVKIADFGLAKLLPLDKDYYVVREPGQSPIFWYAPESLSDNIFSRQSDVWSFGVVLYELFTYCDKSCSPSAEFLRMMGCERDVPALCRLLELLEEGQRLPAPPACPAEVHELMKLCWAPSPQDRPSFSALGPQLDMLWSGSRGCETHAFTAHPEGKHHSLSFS
# Protocol: In vitro BTK and JAK3 inhibition studies are shown in Table 17 and Table 18 (no preincubation).
# BTK [2] = target: T1, BTK; assay: In vitro BTK inhibition (no preincubation); type: biochemical
# BTK [3] = target: T1, BTK; assay: BTK irreversible inhibition, enzyme kinetic analysis; type: biochemical
# Protocol: One of ordinary skill in the art will recognize that this is consistent with the irreversible inhibition of BTK by compound I-A1.
# One of ordinary skill in the art will recognize that this is consistent with the irreversible inhibition of BTK by compound I-A6.
# One of ordinary skill in the art will recognize that this is consistent with the irreversible inhibition of BTK by compound 3A-2.
# The shift of IC50 to a lower value after pre-incubation of the enzyme indicates to one of ordinary skill in the art that a significant portion of the enzyme was inhibited irreversibly during the incubation period.
# BTK (His-tagged protein) = assay: Covalent modification of BTK by mass spectrometry (intact protein); type: binding; conditions: 10 μM BTK, 50 μM compound, 2 hours, 30° C.
# Protocol: After incubation of 10 μM BTK in the presence of 50 μM of compound I-A1 for 2 hours at 30° C., the mass of the modified protein was determined by mass spectrometry. […] After incubation with inhibitor I-A1, the intensity of this had decreased by an order of magnitude, and the most intense peak is consistent with the protein whose mass was increased by 595 Da, corresponding closely to the expected mass of the inhibitor I-A1 (less one fluoride from inhibitor, and one proton from protein, 596 Da).
# [4] = test system: RL human non-Hodgkin's lymphoma B cell line; assay: In vitro efficacy in RL cells (Example G1); conditions: read-out: RL (IC50, μM)
# [5] = test system: RL human non-Hodgkin's lymphoma B cell line; assay: Cell viability in RL cells (Table 6); type: cell-based
# [6] = test system: normal primary human fibroblast (NHF) cell lines; assay: Toxicity study, CellTiter-Blue viability in normal primary human fibroblasts (NHF); type: cell-based; conditions: NHF cells, 72 hrs exposure
# Protocol: Anti-cancer efficacy of exemplary compounds of this application was assessed in vitro in different cancer cell lines. Cell viability was examined following treatment at various concentration of inhibitor (0.097656-50 μM) using a cell Titer-Blue cell viability assay. 1×10^4 cells (NHF cells)/well were plated in 96-well assay plates in culture medium. All cells were grown in DMEM, IMDM and RPMI-1640 supplemented with 10% FBS. After 24 hrs, test compounds and vehicle controls were added to appropriate wells so the final volume was 100p in each well. The cells were cultured for the desired test exposure period (72 hrs) at 37° C. and 5% CO2. The assay plates were removed from 37° C. incubator and 20 μl/well of CellTiter-Blue® Reagent was added. The plates were incubated using standard cell culture conditions for 1-4 hours and the plates were shaken for 10 seconds and record fluorescence at 560/590 nm.
# Representative data for exemplary compounds against select normal primary human fibroblast (NHF) cell lines are presented in the following Table 7.
# [7] = Parallel artificial membrane permeability assay (PAMPA), Example C4; type: in vitro ADME; conditions: PBS pH 7.4, 10 μM, 16 hours
# Protocol: Assay Procedures. […] 7) Cover with plate lid. Vortex at 750 rpm for 100 seconds. […] Determine the compound concentrations by LC/MS/MS.
# [8] = test system: normal pooled human fibroblasts; assay: Viability of normal pooled human fibroblasts (Example G1); conditions: Fibroblast, read-out: Human Fibroblast (IC50, μM)
# BTK [9] = target: T1, BTK; assay: Selected kinase inhibition, BTK (Table 6); type: biochemical
# [10] = Reactivity profiling with glutathione, LC/MS/MS; type: physicochemical; conditions: PBS buffer with 5 mM GSH, PBS pH 7.4, 25° C., 5 μM compound
# Protocol: The experiment was started by placing 1 μL of 1 mM stocking solution of the test compound in DMSO in 199 μL of PBS buffer at pH 7.4 with 5 mM GSH to reach a final concentration of 5 μM. The final DMSO concentration was 0.5%. The solution was then incubated at 25° C. at 600 rpm, and was quenched with 600 μL solution of acetonitrile at 0, 30, 60 and 120 minutes. The quenched solution was vortexed for 10 minutes and centrifuged for 40 minutes at 3,220 g. An aliquot of 100 μL of the supernatant was diluted by 100 μL ultra-pure water, and the mixture was used for LC/MS/MS analysis. The data was processed and analyzed using Microsoft Excel.
# T1 sequence (Q06187 whole entry, species assumed): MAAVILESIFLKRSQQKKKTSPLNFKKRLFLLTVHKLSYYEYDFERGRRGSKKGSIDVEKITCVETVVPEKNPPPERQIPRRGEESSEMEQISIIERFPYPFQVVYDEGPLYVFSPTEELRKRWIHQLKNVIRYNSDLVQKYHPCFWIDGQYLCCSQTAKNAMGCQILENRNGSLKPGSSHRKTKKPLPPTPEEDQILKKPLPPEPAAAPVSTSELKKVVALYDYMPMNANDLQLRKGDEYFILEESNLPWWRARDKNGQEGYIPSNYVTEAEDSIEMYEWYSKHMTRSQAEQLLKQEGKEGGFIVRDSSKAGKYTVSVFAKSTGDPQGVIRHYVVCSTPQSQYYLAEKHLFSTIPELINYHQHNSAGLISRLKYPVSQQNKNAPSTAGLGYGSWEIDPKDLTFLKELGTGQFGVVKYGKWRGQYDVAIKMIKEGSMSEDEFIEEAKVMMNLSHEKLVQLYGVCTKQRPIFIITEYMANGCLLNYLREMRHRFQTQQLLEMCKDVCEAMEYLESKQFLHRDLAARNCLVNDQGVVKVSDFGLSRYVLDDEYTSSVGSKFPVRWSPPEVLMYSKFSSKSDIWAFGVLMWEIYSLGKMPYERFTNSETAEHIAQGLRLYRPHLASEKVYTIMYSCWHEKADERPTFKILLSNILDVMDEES
smiles,measurement,setting,value
"O=C(c1ccc(Oc2ccccc2)cc1Cl)c1c[nH]c2ncnc(N[C@@H]3CC[C@@H](CO)OC3)c12 [ARQ-531, reference compound]",residual activity of the enzyme,"BTK [1]; 6-h incubation, 50 nM BTK, 177 nM compound, relative to DMSO",recovered all of its activity
"C[C@H]1CC[C@@H](Nc2ncnc3[nH]ccc23)CN1S(=O)(=O)c1c(F)c(F)c(F)c(F)c1F [Compound 3A-25, N-((3R,6S)-6-methyl-1-((perfluorophenyl)sulfonyl)piperidin-3-yl)-7H-pyrrolo[2,3-d]pyrimidin-4-amine]",IC50,JAK3,1000 to 10000 nM
"O=S(=O)(NCCNc1ncnc2[nH]ccc12)c1c(F)c(F)c(F)c(F)c1F [Compound 3A-27, N-(2-((7H-pyrrolo[2,3-d]pyrimidin-4-yl)amino)ethyl)-2,3,4,5,6-pentafluorobenzene sulfonamide]",IC50,BTK [2]; Table 18,0.1 to 10 nM
same,IC50,JAK3,1000 to 10000 nM
"CN(CCNc1ncnc2[nH]ccc12)S(=O)(=O)c1c(F)c(F)c(F)c(F)c1F [Compound 3A-28, N-(2-((7H-pyrrolo[2,3-d]pyrimidin-4-yl)amino)ethyl)-2,3,4,5,6-pentafluoro-N-methylbenzenesulfonamide]",IC50,BTK [2]; Table 18,100 to 1000 nM
same,IC50,JAK3,1000 to 10000 nM
"Nc1ncnc2c1c(-c1ccc(Oc3ccccc3)cc1)nn2[C@@H]1CCCN(S(=O)(=O)c2c(F)c(F)c(F)c(F)c2F)C1 [I-A1, (R)-1-(1-((perfluorophenyl)sulfonyl)piperidin-3-yl)-3-(4-phenoxyphenyl)-1H-pyrazolo[3,4-d]pyrimidin-4-amine]",inhibition profile by enzyme kinetic analysis,"BTK [3]; 0.1 nM BTK, 500 μM ATP",time-dependent inhibition
same,mass increase of BTK after incubation,BTK (His-tagged protein),595 Da
same,IC50,[4],1.61 µM
same,IC50,[5],1000 to 10000 nM
same,IC50,[6],1000 to 10000 nM
same,−Log Pe,[7],B (>5 to ≤6)
same,IC50,[8],3.98 µM
same,inhibition at 0.296 µM,"BTK [1]; 3-h incubation, 40 nM BTK, 296 nM compound, read-out: enzyme inhibited irreversibly",> 90%
same,remaining activity at 0.296 µM,"BTK [1]; 3-h incubation, 40 nM BTK, 296 nM compound, relative to DMSO, read-out: residual activity of the enzyme",7%
"Nc1ncnc2c1c(-c1ccc(Oc3ccccc3)cc1)nn2[C@H]1CCCN(S(=O)(=O)c2c(F)c(F)c(F)c(F)c2F)C1 [I-A2, (S)-1-(1-((perfluorophenyl)sulfonyl)piperidin-3-yl)-3-(4-phenoxyphenyl)-1H-pyrazolo[3,4-d]pyrimidin-4-amine]",IC50,[5],1000 to 10000 nM
same,IC50,[6],1000 to 10000 nM
same,IC50,BTK [9],100 to 1000 nM
"Nc1ncnc2c1c(-c1ccc(Oc3ccccc3)cc1)nn2S(=O)(=O)c1c(F)c(F)c(F)c(F)c1F [I-A3, 1-((perfluorophenyl)sulfonyl)-3-(4-phenoxyphenyl)-1H-pyrazolo[3,4-d]pyrimidin-4-amine]",IC50,[5],1000 to 10000 nM
same,IC50,BTK [9],100 to 1000 nM
"Nc1ncnc2c1c(-c1ccc(Oc3ccccc3)cc1)nn2[C@@H]1CCCN(S(=O)(=O)c2cc(F)c(F)c(F)c2F)C1 [I-A4, (R)-3-(4-phenoxyphenyl)-1-(1-((2,3,4,5-tetrafluorophenyl)sulfonyl)piperidin-3-yl)-1H-pyrazolo[3,4-d]pyrimidin-4-amine]",IC50,[6],> 25000 nM
same,−Log Pe,[7],B (>5 to ≤6)
same,IC50,BTK [9],10 to 100 nM
"Nc1ncnc2c1c(-c1ccc(Oc3ccccc3)cc1)nn2[C@@H]1CCCN(S(=O)(=O)c2c(F)c(F)cc(F)c2F)C1 [I-A5, (R)-3-(4-phenoxyphenyl)-1-(1-((2,3,5,6-tetrafluorophenyl)sulfonyl)piperidin-3-yl)-1H-pyrazolo[3,4-d]pyrimidin-4-amine]",half-life at 5 μM,[10],6.94 to 20.8 days
same,IC50,BTK [2]; Table 17,100 to 1000 nM
same,inhibition profile by enzyme kinetic analysis,"BTK [3]; 0.1 nM BTK, 500 μM ATP",linear enzyme reaction rates
same,IC50,"BTK [3]; fitting of linear reaction rates to a reversible binding model, read-out: IC50 (reversible binding model)",334 nM
same,IC50,[6],> 25000 nM
same,−Log Pe,[7],B (>5 to ≤6)
same,IC50,BTK [9],100 to 1000 nM
"Nc1ncnc2c1c(-c1ccc(Oc3ccccc3)cc1)nn2[C@@H]1CCCN(S(=O)(=O)c2c(F)c(F)c(F)c(F)c2OC2CC2)C1 [I-A6, (R)-1-(1-((2-cyclopropoxy-3,4,5,6-tetrafluorophenyl)sulfonyl)piperidin-3-yl)-3-(4-phenoxyphenyl)-1H-pyrazolo[3,4-d]pyrimidin-4-amine]",IC50,BTK [2]; Table 17,100 to 1000 nM
same,inhibition profile by enzyme kinetic analysis,"BTK [3]; 0.1 nM BTK, 500 μM ATP",time-dependent inhibition
same,kinact,"BTK [3]; 0.1 nM BTK, 500 μM ATP, saturation kinetics",0.000671 s⁻¹
same,Ki,"BTK [3]; 0.1 nM BTK, 500 μM ATP, saturation kinetics of irreversible inhibition",71.3 nM
same,IC50,[4],1 µM
same,IC50,[6],> 25000 nM
same,−Log Pe,[7],C (>6 to ≤7)
same,IC50,BTK [9],100 to 1000 nM
same,IC50,[8],> 25 µM
"Nc1ncnc2c1c(-c1ccc(Oc3ccccc3)cc1)nn2[C@@H]1CCCN(S(=O)(=O)c2c(OC3CC3)c(F)c(F)c(F)c2OC2CC2)C1 [I-A7, (R)-1-(1-((2,6-dicyclopropoxy-3,4,5-trifluorophenyl)sulfonyl)piperidin-3-yl)-3-(4-phenoxyphenyl)-1H-pyrazolo[3,4-d]pyrimidin-4-amine]",IC50,[6],> 25000 nM
same,−Log Pe,[7],C (>6 to ≤7)
"C=CC(=O)N1CCC[C@@H](n2nc(-c3ccc(Oc4ccccc4)cc3)c3c(N)ncnc32)C1 [Ibrutinib, reference compound]",IC50,[4],10.3 µM
same,IC50,[5],10000 to 30000 nM
same,IC50,[6],10000 to 25000 nM
same,IC50,[8],26.8 µM
